Assay results published in patent US20130237415A1 (priority 2010, published 2013).
Where two headings read alike, the source gives them in different places.

Tests used:
Fusarium graminearum [1] = format: in vivo; conditions: for FHB Area / FHB Area (% of Control) / Observed % FHB Efficacy / % FHB Control*: spring wheat; for FHB Area / FHB Area (% of Control) / Observed % FHB Efficacy: Group B; for % FHB Control*: Group A, GS 59, 100 gai/ha, relative to inoculated untreated check
Fusarium graminearum [2] = format: in vivo; conditions: for DON Levels (% of Control) / DON Levels (ppm) / Observed % DON Efficacy: harvested spring wheat grain, Group B; for % DON Reduction: spring wheat, Group A, GS 59, 100 gai/ha, relative to inoculated untreated check
Fusarium verticillioides = conditions: for F. verticilliodes disease severity (in words): safeners alone at 100 gai/ha
Protocol: Corn seeds of the Garst hybrid 86C73-3000GT were planted and grown in the greenhouse at 22° C., 12 hours of light/12 hours of dark using an experiment based on a randomized complete block (RCB) design with ten replicates.
Safeners tested were: N-(2-methoxybenzoyl)-4-[(methylaminocarbonyl)amino]benzenesulfonamide, Cyprosulfamide, and Isoxadifen, alone and in combination with Prothioconazole fungicide, were applied at the beginning of tasselling stage (GS 51-55) at rates of 100 gai/ha. Prothioconazole was tested alone at rates of 50, 100, and 200 gai/ha. Prothioconazole was tested in combination with safeners at 100 gai/ha. An additional treatment of Prothioconazole at 50 gai/ha+Isoxadifen at 100 gai/ha was included. All treatments were applied a water volume of 220 L/ha using a track sprayer. The adjuvant X-77 was included in each treatment of maize at a rate of 0.125% v/v. Untreated non-innoculated and inoculated control treatments were included within the treatment list.
Maize was inoculated with Fusarium verticillioides at flowering/silking stage (GS 61-65) by spraying conidia of F. verticillioides on the emerged silk at 1.0×10^6 conidia/mL. Treated plants where then incubated in the dark at 22° C. for 3 days in the dark at 100% R.H., followed by 6 days at 65% R.H. at 12 hour light/dark intervals at 22° C.
Maize was harvested at maturity, the weight of corn seeds per ear was recorded. Fusarium disease severity per maize ear was determined by plating a ten seeds per ear on Fusarium selective agar media. Seeds were surface sterilized with 5% sodium hypochloride for 1 minute followed by washing with sterile water for 1 minute, prior to plating on selective media. After plating, seeds were incubated in the dark at 15° C. for 10 days.

Row | Compound | FHB Area (Fusarium graminearum [1]; GS 65/69, 50 gai/ha) [%] | FHB Area (% of Control) (Fusarium graminearum [1]; GS 65/69, 50 gai/ha) [%] | Observed % FHB Efficacy (Fusarium graminearum [1]; GS 65/69, 50 gai/ha) [%] | FHB Area (Fusarium graminearum [1]; GS 65/69, 100 gai/ha) [%] | FHB Area (% of Control) (Fusarium graminearum [1]; GS 65/69, 100 gai/ha) [%] | Observed % FHB Efficacy (Fusarium graminearum [1]; GS 65/69, 100 gai/ha) [%] | FHB Area (Fusarium graminearum [1]; GS 65/69, 200 gai/ha) [%] | FHB Area (% of Control) (Fusarium graminearum [1]; GS 65/69, 200 gai/ha) [%] | Observed % FHB Efficacy (Fusarium graminearum [1]; GS 65/69, 200 gai/ha) [%] | DON Levels (% of Control) (Fusarium graminearum [2]; GS 65/69, 50 gai/ha) [%] | DON Levels (ppm) (Fusarium graminearum [2]; GS 65/69, 50 gai/ha) | Observed % DON Efficacy (Fusarium graminearum [2]; GS 65/69, 50 gai/ha) [%] | DON Levels (% of Control) (Fusarium graminearum [2]; GS 65/69, 100 gai/ha) [%] | DON Levels (ppm) (Fusarium graminearum [2]; GS 65/69, 100 gai/ha) | Observed % DON Efficacy (Fusarium graminearum [2]; GS 65/69, 100 gai/ha) [%] | DON Levels (% of Control) (Fusarium graminearum [2]; GS 65/69, 200 gai/ha) [%] | DON Levels (ppm) (Fusarium graminearum [2]; GS 65/69, 200 gai/ha) | Observed % DON Efficacy (Fusarium graminearum [2]; GS 65/69, 200 gai/ha) [%] | % FHB Control* (Fusarium graminearum [1]) [%] | % DON Reduction (Fusarium graminearum [2]) [%] | other results
1 | CON(C(=O)c1cn(C)nc1C(F)F)C(C)Cc1c(Cl)cc(Cl)cc1Cl (centres unmarked) [3-difluoromethyl-1-methyl-1H-pyrazole-4-carboxylic acid methoxy-[1-methyl-2-(2,4,6-trichlorophenyl)-ethyl]-amide] | 8.3 | 13.7 | 86.3 | 7.5 | 12.4 | 87.6 | 7 | 11.5 | 88.5 | 25.9 | 7.084 | 74.1 | 16.1 | 4.388 | 83.9 | 11.7 | 3.187 | 88.3 | – | – | –
2 | Prothioconazole | 28.1 | 46.3 | 53.7 | 57.5 | 94.7 | 5.3 | 7.3 | 12.0 | 88.0 | 37.6 | 10.274 | 62.4 | 38.3 | 10.456 | 61.7 | 15.8 | 4.322 | 84.2 | – | – | Fusarium verticilliodes disease severity per maize ear (in words) (Fusarium verticillioides; treated versus untreated control maize plants): reduced disease severity
3 | O=C(O)C1=NOC(c2ccccc2)(c2ccccc2)C1 [Isoxadifen, 4,5-dihydro-5,5-diphenyl-3-isoxazolecarboxylic acid] | – | – | – | 81.3 | 133.9 | 0.0 | – | – | – | – | – | – | 106.6 | 29.098 | 0.0 | – | – | – | 0 | 17 | effectiveness of treatment for wheat (in words) (Fusarium graminearum [1]; wheat): Particularly effective; effectiveness of treatment for maize (in words) (Fusarium verticillioides; maize): Particularly effective; F. verticilliodes disease severity (in words) (Fusarium verticillioides; maize): greatly reduced
4 | CNC(=O)Nc1ccc(S(=O)(=O)NC(=O)c2ccccc2OC)cc1 | – | – | – | – | – | – | – | – | – | – | – | – | – | – | – | – | – | – | 7 | 0 | F. verticilliodes disease severity (in words) (Fusarium verticillioides; maize): greatly reduced
5 | CCCCCC(C)OC(=O)COc1ccc(Cl)c2cccnc12 (centres unmarked) [Cloqunitocet, 1-methylhexyl[(5-chloro-8-quinolinyl)oxy]acetate] | – | – | – | – | – | – | – | – | – | – | – | – | – | – | – | – | – | – | 1 | 9 | –
